Values joined by “and” are separate entries in the source; they are usually repeats but may differ in a detail not shown here. Equal entries are not always repeated. Where two headings read alike, the source gives them in different places.
What was measured:
[1] = test system: T1, Plasmodium falciparum Dd2-attB (parental line), asexual blood stages; assay: microbe, parasite or virus in culture; design: replicate k of 3 (each line is one of three independent assays; the three lines of one compound and parasite line follow each other); conditions: n = 1; for Individual replicates / Log AC50 (M): 72 h; for AC50: Plasmodium falciparum, DD2, 72 h, read-out: Individual replicates / Log AC50 (converted)
T1 construct: Dd2-attB, the isogenic parental line
Method: (§1) The overexpression of the fumarate-dependent yeast DHODH confers resistance to compounds that inhibit the parasite mETC, or the parasite DHODH enzyme that depends on ubiquinone provided by the parasite mETC. Assays were performed in three independent assays on a subset of compounds, and differences between the Dd2-attB parental line and the ScDHODH transgenic line were analyzed using two-sided Student’s t-tests.

[2] = test system: T2, Plasmodium falciparum Dd2-attB-ScDHODH (transgenic line expressing yeast DHODH), asexual blood stages; assay: organism not typed; design: replicate k of 3 (each line is one of three independent assays; the three lines of one compound and parasite line follow each other)
T2 construct: Dd2-attB-ScDHODH, the transgenic line that expresses yeast DHODH
Method: as §1

[3] = 72 h; n = 1; read-out: Individual replicates / Log AC50 (converted)

| SMILES | Individual replicates / Log AC50 (M) [1] | AC50 [1] | Individual replicates / Log AC50 (M) ([2]; 72 h, n = 1) | AC50 [2, 3] | AC50 ([2]; 72 h, read-out: Individual replicates / Log AC50 (M) (converted); n = 1) | Individual replicates / Log AC50 (M) ([2]; 72 h; n = 1) |
| --- | --- | --- | --- | --- | --- | --- |
| CC(c1ccccc1)N1CCN(c2cnc3c(O)ccc(C(=O)O)c3c2)CC1 (stereo not drawn) [NCGC00247745-01] | -4.8486 Log AC50 (M) and -4.7486 Log AC50 (M) | 15.9 µM | -4.7986 Log AC50 (M) and -4.7486 Log AC50 (M) | 1.78e-05 M |  |  |
| COc1cc(CN2CCc3nc(N4CCN(c5ncccn5)CC4)ncc3C2)cc(OC)c1OC [NCGC00131437-02] | -5.3486 Log AC50 (M) and -5.1486 Log AC50 (M) | 5.64 µM | -5.1486 Log AC50 (M) and -5.0986 Log AC50 (M) | 7.1e-06 M |  |  |
| Oc1ccc(COCc2ccc(F)cc2)c2cccnc12 [NCGC00183381-01] | -4.7986 Log AC50 (M) | 17.8 µM | -4.7486 Log AC50 (M) and -4.7986 Log AC50 (M) | 1.59e-05 M |  |  |
| Oc1ccc(CNc2cccc(C(F)(F)F)c2)c2cccnc12 [NCGC00177833-02] |  | 17.8 µM | -4.7486 Log AC50 (M) | 1.59e-05 M |  |  |
| C/C=C(\C#N)C(=O)N1CCCN(c2cc(NCCC(=O)OC)nc(-c3ccccn3)n2)CC1 [NCGC00420778-01] |  | 15.9 µM |  | 1.42e-05 M |  |  |
| O=[S+]([O-])(Nc1ccc(O)c2ncccc12)c1ccccc1F [NCGC00184887-01] | -5.0986 Log AC50 (M) and -5.1486 Log AC50 (M) | 14.2 µM |  | 1.42e-05 M |  |  |
| Cc1ccc(NCc2ccc(O)c3ncccc23)c(F)c1 [NCGC00184895-01] | -4.7986 Log AC50 (M) | 17.8 µM | -4.7486 Log AC50 (M) | 1.59e-05 M |  |  |
| CN(C)C(=O)c1cccc(-c2cc(O)c3ncccc3c2)c1 [NCGC00244525-01] | -5.2486 Log AC50 (M) and -5.1486 Log AC50 (M) | 7.1 µM | -5.1986 Log AC50 (M) and -5.0986 Log AC50 (M) | 6.33e-06 M |  |  |
| O=C(O)c1ccnc(-n2ncc(C(OCCN3CCCCC3)c3cccc(-c4ccccc4)c3)c2-c2cccc(-c3ccccc3)c2)c1 (stereo not drawn) [NCGC00487052-02] | -5.3986 Log AC50 (M) and -5.4486 Log AC50 (M) and -5.3486 Log AC50 (M) |  | -5.1486 Log AC50 (M) and -5.2486 Log AC50 (M) |  |  |  |
| CCCCOC(=O)c1ccnc2cc(-c3nc4ccccc4[nH]3)sc12 [NCGC00482448-01] | -5.7486 Log AC50 (M) and -5.6986 Log AC50 (M) | 2 µM | -5.5986 Log AC50 (M) and -5.6986 Log AC50 (M) | 2e-06 M |  |  |
| O=C(O)c1ccnc2cc(C(OCCCN3CCCCC3)c3ccccc3Cl)[nH]c12 (stereo not drawn) [NCGC00421948-01] | -4.9486 Log AC50 (M) | 7.97 µM |  | 5.03e-06 M |  |  |
| CCCN1CCCc2cc(CN(CCCN3CCOCC3)C(=O)Nc3ccc(Cl)c(Cl)c3)ccc21 [NCGC00140597-02] | -5.3486 Log AC50 (M) and -5.2986 Log AC50 (M) | 3.99 µM | -5.3986 Log AC50 (M) and -5.0986 Log AC50 (M) | 3.99e-06 M |  |  |
| Cc1nn2c(c1-c1ccccc1-c1ccccc1)N(CC1CC1)CCC2 [NCGC00420435-02] | -4.7986 Log AC50 (M) and -4.8486 Log AC50 (M) | 14.2 µM | -4.7486 Log AC50 (M) and -4.8486 Log AC50 (M) | 1.59e-05 M |  |  |
| Oc1ccc(COc2cccc3ccccc23)c2cccnc12 [NCGC00183380-01] | -4.7986 Log AC50 (M) and -4.7486 Log AC50 (M) | 20 µM |  |  | 1.59e-05 M |  |
| CN(C)CCCNC(=O)c1ccc(-c2cnc3c(O)cccc3c2)cc1 [NCGC00189502-01] | -4.9986 Log AC50 (M) | 7.1 µM | -5.0486 Log AC50 (M) and -4.8986 Log AC50 (M) | 7.97e-06 M |  |  |
| C=CC(=O)Nc1cccc(C(OCCN2CCCCC2)c2cc3nccc(C(=O)OC(C)C)c3s2)c1 (stereo not drawn) [NCGC00493267-01] | -5.1486 Log AC50 (M) and -5.0486 Log AC50 (M) | 8.94 µM | -5.0486 Log AC50 (M) and -4.7986 Log AC50 (M) | 7.97e-06 M |  |  |
| Oc1ccc(CNc2cc(Cl)ccn2)c2cccnc12 [NCGC00241028-01] | -5.2986 Log AC50 (M) | 5.03 µM | -5.3486 Log AC50 (M) and -5.2986 Log AC50 (M) | 6.33e-06 M |  |  |
| C/C(=N\NC(=S)N1CCN(c2ccccn2)CC1)c1ccccn1 [NCGC00386445-01] | -5.3486 Log AC50 (M) | 4.48 µM |  | 4.48e-06 M |  | -5.3486 Log AC50 (M) |
| Oc1ccc(CNc2ccccc2Cl)c2cccnc12 [NCGC00184891-01] | -4.6986 Log AC50 (M) | 15.9 µM | -4.7486 Log AC50 (M) | 1.42e-05 M |  |  |

| SMILES | Individual replicates / Log AC50 (M) [1] | AC50 [1] | Individual replicates / Log AC50 (M) ([2]; 72 h, n = 1) | AC50 [2, 3] | AC50 ([2]; 72 h, read-out: Individual replicates / Log AC50 (M) (converted); n = 1) | Individual replicates / Log AC50 (M) ([2]; 72 h; n = 1) |
| --- | --- | --- | --- | --- | --- | --- |
| CCCCOC(=O)c1ccnc2cc(C(OCCN3CCCCC3)c3ccccc3C)sc12 (stereo not drawn) [NCGC00481621-01] | -5.0986 Log AC50 (M) and -5.0486 Log AC50 (M) | 8.94 µM | -4.7986 Log AC50 (M) | 1.42e-05 M |  |  |
| COc1ccc(NCc2ccc(O)c3ncccc23)nc1 [NCGC00241022-01] | -4.8486 Log AC50 (M) | 20 µM | -4.9486 Log AC50 (M) | 1.13e-05 M |  |  |
| O=C(O)c1ccnc(-n2ncc(C(OCCN3CCCCC3)c3cccc(-c4ccccc4)c3)c2-c2cccc(-c3ccccc3)c2)c1 (stereo not drawn) [NCGC00487052-01] | -5.3986 Log AC50 (M) | 4.48 µM | -5.4986 Log AC50 (M) and -5.2986 Log AC50 (M) (2×) |  |  |  |
| CN(C)CC1CCN(C2CCN(C(=O)c3cccc(-c4cc(O)c5ncccc5c4)c3)CC2)CC1 [NCGC00247736-01] | -5.3486 Log AC50 (M) and -4.8486 Log AC50 (M) and -5.1486 Log AC50 (M) |  | -4.7986 Log AC50 (M) and -5.0486 Log AC50 (M) |  |  |  |
| O=C(O)c1ccc(O)c2ncc(N3CCC(N4CCOCC4)C3)cc12 (stereo not drawn) [NCGC00241757-01] | -4.9486 Log AC50 (M) and -4.7986 Log AC50 (M) | 10 µM |  | 1.59e-05 M |  | -4.7986 Log AC50 (M) |
| O=C(O)c1ccnc2cc(C(OCCN3CCOCC3)c3ccccc3Cl)[nH]c12 (stereo not drawn) [NCGC00421890-01] | -5.1986 Log AC50 (M) | 5.64 µM | -5.3986 Log AC50 (M) and -5.2486 Log AC50 (M) | 5.03e-06 M |  |  |
| CN(C)CCCNC(=O)c1ccc(-c2cc(O)c3ncccc3c2)cc1 [NCGC00183808-03] | -4.9486 Log AC50 (M) and -4.8986 Log AC50 (M) | 14.2 µM | -4.8486 Log AC50 (M) | 1.26e-05 M |  |  |
| CN(C)CCNC(=O)c1cccc(-c2cc(O)c3ncccc3c2)c1 [NCGC00244526-01] | -5.0986 Log AC50 (M) and -4.9486 Log AC50 (M) | 14.2 µM | -4.7986 Log AC50 (M) | 1.78e-05 M |  |  |
| CCOc1ccc(-c2[nH]c3c(C#N)cnn3c2NC2CCCC2)cc1 [NCGC00120007-02] | -4.7486 Log AC50 (M) | 14.2 µM | -4.8486 Log AC50 (M) | 1.78e-05 M |  |  |
| Oc1ccc(CNc2cccc(F)c2)c2cccnc12 [NCGC00184892-01] | -4.7486 Log AC50 (M) and -4.8486 Log AC50 (M) | 12.6 µM | -4.7486 Log AC50 (M) | 1.78e-05 M |  |  |
| Cc1nn2c(c1-c1ccccc1Oc1ccccc1)N(CCCc1ccccc1)CCC2 [NCGC00499718-01] | -4.7986 Log AC50 (M) | 15.9 µM |  | 1.59e-05 M |  | -4.7986 Log AC50 (M) |
| Cc1cccc2nc(-c3ccccn3)c(Nc3ccc(F)cc3)n12 [NCGC00106061-03] | -5.2986 Log AC50 (M) | 5.03 µM | -5.2986 Log AC50 (M) and -5.0986 Log AC50 (M) | 5.64e-06 M |  |  |
| Oc1ccc(CNc2ccc(C(F)(F)F)cc2F)c2cccnc12 [NCGC00184889-01] |  | 20 µM |  | 1.78e-05 M |  |  |
| CCOC(=O)CCNc1cc(N2CCc3ccccc3CC2)nc(-c2cccnc2)n1 [NCGC00351550-02] | -4.8486 Log AC50 (M) (2×) and -4.7486 Log AC50 (M) |  | -5.0986 Log AC50 (M) and -4.7986 Log AC50 (M) |  |  |  |
| CN(C)[S+](=O)([O-])c1cccc(-c2cc(O)c3ncccc3c2)c1 [NCGC00247754-01] | -5.2986 Log AC50 (M) | 5.64 µM | -5.2986 Log AC50 (M) and -5.1486 Log AC50 (M) | 5.03e-06 M |  |  |
| COC(=O)c1ccc(O)c2ncc(NC3CCNCC3)cc12 [NCGC00241038-01] | -5.1986 Log AC50 (M) and -5.0486 Log AC50 (M) | 8.94 µM | -4.8986 Log AC50 (M) and -5.0986 Log AC50 (M) | 7.1e-06 M |  |  |
| Oc1cc(NCCN2CCOCC2)cc2cccnc12 [NCGC00183799-01] | -5.1486 Log AC50 (M) and -5.2486 Log AC50 (M) | 6.33 µM |  | 8.94e-06 M |  |  |
| CN1CCN(CCCNC(=O)c2cccc(-c3cc(O)c4ncccc4c3)c2)CC1 [NCGC00247740-01] | -4.7986 Log AC50 (M) and -4.7486 Log AC50 (M) | 15.9 µM | -4.7486 Log AC50 (M) and -4.7986 Log AC50 (M) | 1.78e-05 M |  |  |
